Measurements taken from patent publication US20240294550A1, “8-OXA-3-AZABICYCLO[3.2.1]OCTANE COMPOUNDS OR SALT THEREOF, AND PREPARATION METHOD AND USE THEREOF” (LITTDD MEDICINES LTD, priority 2021, published 2024).
Counter-ions that a name gives are not always drawn.

Target: ATR (Homo sapiens (Human), UniProt Q13535)
Experiment: ATR kinase inhibition assay (HTRF)
Type: biochemical
Settings: p53 substrate, ATP 150 nM
Experimental: This experiment adopted Homogeneous time-resolved fluorescence technology (HTRF®) of Cisbio Company for assay.
Experiment method: buffers were prepared as follows:
Preparation of solutions of the test compounds: The example compounds shown in the table below were prepared into solutions using DMSO as solvent, the stock solution typically being 10 mM. The maximum starting concentration in this experiment was 3 μM, DMSO 3-fold serial dilutions for concentrations, the serially diluted solution was added to each well of the corresponding 384-well plate (geriner bio-one, Cat #784075) to give final concentrations of 3000, 1000, 333, 111, 37, 12.3, 4.12, 1.37, 0.457, 0.152 nM, respectively, and the corresponding amount of DMSO was added to the additional wells to be used as negative or positive control wells, respectively.
The enzyme and substrate were separately dissolved and diluted in two tubes with the buffer prepared above at the following concentrations:
5 μL of the ATR protein solution from tube A was added to the compound-containing wells and the negative control wells in the assay plates using an electric multichannel pipettor, and the same volume of the prepared buffer (medium only, no enzyme) was added to the positive control wells. The plates were centrifuged for one minute at 1000 rpm, and then placed in an incubator at 25° C. for 15 minutes. 5 μL of the substrate mix solution from tube B was added to the positive control well, negative control well and the compound-containing well of the assay plates in the same manner, centrifuged and incubated at 25° C. for 90 minutes.
During the reaction, after ATR phosphorylated the substrate p53, two antibodies were added. Among them, anti-phospho-p53-Eu, as an energy donor, can specifically bind to the phosphorylation site of p53, while anti-GST-d2, as an energy receptor, can specifically bind to the GST-tagged p53. Upon excitation by a laser with certain wavelength (the excitation wavelength in this experiment is 340 nm), the energy donor can emit emission light of 615 nm, and when the energy donor and the energy receptor are close enough in space (that is, two antibodies are connected to p53 at the same time), energy transfer can occur between the energy donor and the energy receptor, so that the energy receptor can emit emission light of 665 nm. The two emission lights were detected by a plate reader, and the ratio of the signals at 665 nm and 615 nm was calculated. The IC50 of the samples tested can be obtained by plotting and calculation.
10 μL per well of the detection solution was added to the positive control, negative control and compound wells of the assay plate using an electric multichannel pipette, centrifuged and incubated overnight at 4° C., and read with the plate reader Envision 2104.
Compound inhibition rate was calculated using interpolation. The mean values of the positive and negative controls were calculated respectively, and the following formula was used to calculate the inhibition rates of the compounds:
Inhibition rate Minimum response+(Compound concentration ^Curve slope)*(Maximum response−Minimum response)/(Compound concentration^Curve slope+Half inhibition concentration ^Curve slope)
The IC50 value of each compound to enzyme activity was obtained.

Sequence of ATR (Q13535 whole entry): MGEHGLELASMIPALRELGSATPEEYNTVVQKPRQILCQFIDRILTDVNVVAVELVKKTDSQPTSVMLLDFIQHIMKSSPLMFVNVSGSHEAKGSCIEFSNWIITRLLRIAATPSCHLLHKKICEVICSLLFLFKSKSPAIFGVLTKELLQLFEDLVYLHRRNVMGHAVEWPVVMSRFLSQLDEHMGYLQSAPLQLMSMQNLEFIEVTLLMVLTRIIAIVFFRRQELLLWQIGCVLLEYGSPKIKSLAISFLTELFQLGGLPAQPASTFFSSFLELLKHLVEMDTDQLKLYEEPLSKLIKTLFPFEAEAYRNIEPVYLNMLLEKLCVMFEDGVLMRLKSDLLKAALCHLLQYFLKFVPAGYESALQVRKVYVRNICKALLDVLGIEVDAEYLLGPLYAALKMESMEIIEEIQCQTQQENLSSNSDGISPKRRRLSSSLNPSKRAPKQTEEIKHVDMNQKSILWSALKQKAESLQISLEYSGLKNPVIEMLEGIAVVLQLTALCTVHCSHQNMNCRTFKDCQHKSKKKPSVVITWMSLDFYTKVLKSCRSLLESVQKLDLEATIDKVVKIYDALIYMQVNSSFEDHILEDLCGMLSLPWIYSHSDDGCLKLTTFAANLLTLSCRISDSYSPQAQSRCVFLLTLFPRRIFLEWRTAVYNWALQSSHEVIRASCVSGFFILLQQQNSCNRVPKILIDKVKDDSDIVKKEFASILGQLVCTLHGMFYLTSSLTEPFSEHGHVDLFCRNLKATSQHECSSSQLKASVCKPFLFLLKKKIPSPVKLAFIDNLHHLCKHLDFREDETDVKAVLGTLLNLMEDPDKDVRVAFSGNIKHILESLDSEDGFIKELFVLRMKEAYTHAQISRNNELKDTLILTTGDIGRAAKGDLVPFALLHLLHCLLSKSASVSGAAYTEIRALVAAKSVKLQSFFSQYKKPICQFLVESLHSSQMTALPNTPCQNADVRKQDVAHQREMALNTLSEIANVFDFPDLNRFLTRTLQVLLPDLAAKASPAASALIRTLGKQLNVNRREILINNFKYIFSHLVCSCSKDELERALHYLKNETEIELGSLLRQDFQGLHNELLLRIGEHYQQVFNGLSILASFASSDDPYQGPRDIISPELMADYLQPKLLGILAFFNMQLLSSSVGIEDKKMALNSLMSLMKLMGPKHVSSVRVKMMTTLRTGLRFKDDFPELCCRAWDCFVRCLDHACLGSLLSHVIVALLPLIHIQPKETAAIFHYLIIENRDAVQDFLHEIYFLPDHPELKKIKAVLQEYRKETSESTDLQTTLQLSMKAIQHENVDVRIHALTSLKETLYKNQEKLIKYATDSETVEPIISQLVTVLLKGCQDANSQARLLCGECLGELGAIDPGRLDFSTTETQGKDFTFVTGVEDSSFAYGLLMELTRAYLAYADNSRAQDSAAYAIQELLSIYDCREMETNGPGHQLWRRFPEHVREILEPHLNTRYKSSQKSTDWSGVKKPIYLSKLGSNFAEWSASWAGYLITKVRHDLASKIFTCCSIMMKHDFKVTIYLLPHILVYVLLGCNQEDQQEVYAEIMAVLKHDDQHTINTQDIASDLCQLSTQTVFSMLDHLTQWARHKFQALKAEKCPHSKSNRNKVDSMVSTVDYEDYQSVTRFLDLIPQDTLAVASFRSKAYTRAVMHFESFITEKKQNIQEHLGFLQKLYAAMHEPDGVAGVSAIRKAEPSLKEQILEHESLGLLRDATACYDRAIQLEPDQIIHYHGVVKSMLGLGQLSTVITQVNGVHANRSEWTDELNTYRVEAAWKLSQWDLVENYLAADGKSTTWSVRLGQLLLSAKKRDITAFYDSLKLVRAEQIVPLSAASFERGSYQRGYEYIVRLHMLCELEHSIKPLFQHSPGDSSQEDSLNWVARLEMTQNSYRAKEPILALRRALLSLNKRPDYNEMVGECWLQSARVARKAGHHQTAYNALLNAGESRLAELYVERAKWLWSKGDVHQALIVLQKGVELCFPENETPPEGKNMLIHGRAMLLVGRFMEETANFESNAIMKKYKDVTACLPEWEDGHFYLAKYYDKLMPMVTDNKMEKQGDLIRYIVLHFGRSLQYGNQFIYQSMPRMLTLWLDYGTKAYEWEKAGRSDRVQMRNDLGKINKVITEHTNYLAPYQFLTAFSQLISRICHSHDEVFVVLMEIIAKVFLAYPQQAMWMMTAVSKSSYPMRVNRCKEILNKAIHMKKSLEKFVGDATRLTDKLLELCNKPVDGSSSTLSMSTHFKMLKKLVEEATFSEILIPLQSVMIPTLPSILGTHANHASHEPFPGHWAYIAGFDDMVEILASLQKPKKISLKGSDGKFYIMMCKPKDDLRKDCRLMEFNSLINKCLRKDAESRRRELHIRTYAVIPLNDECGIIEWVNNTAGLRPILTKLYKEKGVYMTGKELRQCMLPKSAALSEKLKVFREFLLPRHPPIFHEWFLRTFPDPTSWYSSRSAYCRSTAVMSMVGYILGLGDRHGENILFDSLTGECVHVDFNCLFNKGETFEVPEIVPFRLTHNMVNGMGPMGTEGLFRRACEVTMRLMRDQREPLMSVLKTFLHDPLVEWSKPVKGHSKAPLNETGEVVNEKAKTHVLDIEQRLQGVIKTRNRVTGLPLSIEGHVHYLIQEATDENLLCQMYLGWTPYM
Sequence of ATR (Q8WXE1 whole entry partner): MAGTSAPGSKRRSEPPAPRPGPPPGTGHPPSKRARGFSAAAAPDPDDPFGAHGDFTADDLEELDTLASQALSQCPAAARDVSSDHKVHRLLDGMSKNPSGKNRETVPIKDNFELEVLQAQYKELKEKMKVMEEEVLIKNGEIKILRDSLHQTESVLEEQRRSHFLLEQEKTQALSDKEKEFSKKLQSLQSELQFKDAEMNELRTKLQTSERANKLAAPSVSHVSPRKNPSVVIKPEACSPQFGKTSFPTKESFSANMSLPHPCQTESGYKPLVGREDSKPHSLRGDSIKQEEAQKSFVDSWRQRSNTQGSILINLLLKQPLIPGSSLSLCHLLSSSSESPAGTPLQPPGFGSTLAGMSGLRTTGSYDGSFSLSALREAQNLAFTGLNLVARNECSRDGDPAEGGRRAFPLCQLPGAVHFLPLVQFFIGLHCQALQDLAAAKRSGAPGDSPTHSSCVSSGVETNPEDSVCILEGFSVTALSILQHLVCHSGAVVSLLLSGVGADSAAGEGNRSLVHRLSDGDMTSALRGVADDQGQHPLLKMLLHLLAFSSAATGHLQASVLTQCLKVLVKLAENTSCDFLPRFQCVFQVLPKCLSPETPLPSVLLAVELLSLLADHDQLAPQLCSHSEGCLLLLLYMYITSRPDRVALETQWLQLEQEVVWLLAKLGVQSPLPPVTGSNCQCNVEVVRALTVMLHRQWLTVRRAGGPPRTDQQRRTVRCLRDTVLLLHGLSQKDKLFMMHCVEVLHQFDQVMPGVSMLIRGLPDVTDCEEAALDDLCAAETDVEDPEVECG

| SMILES | IC50 [nM] |
| --- | --- |
| Cn1nc(-c2cc[nH]n2)c2nc(N3CC4CCC(C3)O4)cc(N3CC4CCC(C3)O4)c21 [Example 13, 3-(7-(8-oxa-3-azabicyclo[3.2.1]octan-3-yl)-1-methyl-3-(1H-pyrazol-3-yl)-1H-pyrazolo[4,3-b]pyridin-5-yl)-8-oxa-3-azabicyclo[3.2.1]octane] | 18 |
| c1cc(-c2ncc3c(N4CCCCC4)cc(N4CC5CCC(C4)O5)nn23)n[nH]1 [Example 17, 3-(4-(piperidin-1-yl)-7-(1H-pyrazol-3-yl)imidazo[1,5-b]pyridazin-2-yl)-8-oxa-3-azabicyclo[3.2.1]octane] | 32 |
| c1cc(-c2ncc3c(N4CCOCC4)cc(N4CC5CCC(C4)O5)nn23)n[nH]1 [Example 7, 3-(4-morpholino-7-(1H-pyrazol-3-yl)imidazo[1,5-b]pyridazin-2-yl)-8-oxa-3-azabicyclo[3.2.1]octane] | 21.4 |
| c1cc(-c2ncc3c(N4CCNCC4)cc(N4CC5CCC(C4)O5)nn23)n[nH]1 [Example 10, 3-(4-(piperazin-1-yl)-7-(1H-pyrazol-3-yl)imidazo[1,5-b]pyridazin-2-yl)-8-oxa-3-azabicyclo[3.2.1]octane formate] | 145 |
| c1cc(-n2ncc3c(N4CC5CCC(C4)O5)cc(N4CC5CCC(C4)O5)nc32)n[nH]1 [Example 12, 3-(6-(-8-oxa-3-azabicyclo[3.2.1]octan-3-yl)-1-(1H-pyrazol-3-yl)-1H-pyrazolo[3,4-b]pyridin-4-yl)-8-oxa-3-azabicyclo[3.2.1]octane] | 16.9 |

Continued, values first:

| IC50 [nM] | SMILES |
| --- | --- |
| 149 | Cn1nccc1-c1cc(N2CC3CCC(C2)O3)nn2c(-c3cc[nH]n3)cnc12 [Example 27, 3-(8-(1-methyl-1H-pyrazol-5-yl)-3-(1H-pyrazol-3-yl)imidazo[1,2-b]pyridazin-6-yl)-8-oxa-3-azabicyclo[3.2.1]octane] |
| 5.2 | CC1CC(F)(F)CCN1c1cc(N2CC3CCC(C2)O3)nn2c(-c3cc[nH]n3)ncc12 (stereo not drawn) [Example 30, 3-(4-(4,4-difluoro-2-methylpiperidin-1-yl)-7-(1H-pyrazol-3-yl)imidazo[1,5-b]pyridazin-2-yl)-8-oxa-3-azabicyclo[3.2.1]octane] |
| 85.5 | OC1(c2cc(N3C[C@H]4CC[C@@H](C3)O4)nc3c(-c4ccn[nH]4)cnn23)CCOCC1 [Example 23, 4-(5-((1R,5S)-8-oxa-3-azabicyclo[3.2.1]octan-3-yl)-3-(1H-pyrazol-5-yl)pyrazolo[1,5-a]pyrimidin-7-yl)tetrahydro-2H-pyran-4-ol] |
| 50.8 | CC1CN(c2cc(N3CC4CCC(C3)O4)nn3c(-c4cc[nH]n4)ncc23)CCO1 (stereo not drawn) [Example 18, 3-(4-(2-methylmorpholino)-7-(1H-pyrazol-3-yl)imidazo[1,5-b]pyridazin-2-yl)-8-oxa-3-azabicyclo[3.2.1]octane] |
